Source: the supplement of paper PMC4862054

Tests used:
Settings in all cases: incubation time: 72 h
HCC1143 [1] = assay: normalised viability (% of control), CellTiter-Blue; higher = more viable cells (100 = DMSO, 0 = benzethonium chloride kill control)
Summary of the method: (§1)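 Vehicle (100) and a positive kill control (0) anchored the normalisation of each plate, and Z'-factor was used for quality control. Breast cancer cell lines in 20 µl suspension were incubated 72 h over compound in 5 µl medium in 384-well plates, followed by CellTiter-Blue at 560/590 nm. The value is normalised viability at a single listed concentration of the series.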

CAL-148 [2] = assay: as above
Summary of the method: as §1

HCC1937 [3] = assay: as above
Summary of the method: as §1

HDQ-P1 [4] = assay: as above
Summary of the method: as §1

MFM-223 [5] = assay: as above
Summary of the method: as §1

CAL-51 [6] = assay: as above
Summary of the method: as §1

Hs578T [7] = assay: as above
Summary of the method: as §1

BT-474 [8] = assay: as above
Summary of the method: as §1

BT-549 [9] = assay: as above
Summary of the method: as §1

DU-4475 [10] = assay: as above
Summary of the method: as §1

CAL-85-1 [11] = assay: as above
Summary of the method: as §1

CAL-120 [12] = assay: as above
Summary of the method: as §1

HCC1599 [13] = assay: as above
Summary of the method: as §1

MDA-MB-468 [14] = assay: as above
Summary of the method: as §1

MDA-MB-231 [15] = assay: as above
Summary of the method: as §1

MDA-MB-436 [16] = assay: as above
Summary of the method: as §1

SK-BR-3 [17] = assay: as above
Summary of the method: as §1

MDA-MB-453 [18] = assay: as above
Summary of the method: as §1

MCF-10A = assay: normalised response (% of control), CellTiter-Glo; higher = more viable cells (100 = DMSO, 0 = benzethonium chloride kill control)
Summary of the method: (§2)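 Breast cancer cell lines were exposed for 72 h in 384-well plates to compound at 5 concentrations, 10-fold apart, covering a 10,000-fold range fixed for each compound. Plates were read for CellTox Green fluorescence and CellTiter-Glo luminescence and normalised to 0.1 % DMSO (100) and a positive kill control (0). Each value is the normalised signal at one concentration of the series.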

HCC1143 [19] = assay: as above
Summary of the method: as §2

CAL-148 [20] = assay: as above
Summary of the method: as §2

HCC1937 [21] = assay: as above
Summary of the method: as §2

HDQ-P1 [22] = assay: as above
Summary of the method: as §2

MFM-223 [23] = assay: as above
Summary of the method: as §2

CAL-51 [24] = assay: as above
Summary of the method: as §2

Hs578T [25] = assay: as above
Summary of the method: as §2

BT-474 [26] = assay: as above
Summary of the method: as §2

BT-549 [27] = assay: as above
Summary of the method: as §2

DU-4475 [28] = assay: as above
Summary of the method: as §2

CAL-85-1 [29] = assay: as above
Summary of the method: as §2

CAL-120 [30] = assay: as above
Summary of the method: as §2

HCC1599 [31] = assay: as above
Summary of the method: as §2

MDA-MB-468 [32] = assay: as above
Summary of the method: as §2

MDA-MB-231 [33] = assay: as above
Summary of the method: as §2

MDA-MB-436 [34] = assay: as above
Summary of the method: as §2

SK-BR-3 [35] = assay: as above
Summary of the method: as §2

MDA-MB-453 [36] = assay: as above
Summary of the method: as §2

Compound	normalised viability (HCC1143 [1]) [%]	normalised viability (CAL-148 [2]) [%]	normalised viability (HCC1937 [3]) [%]	normalised viability (HDQ-P1 [4]) [%]	normalised viability (MFM-223 [5]) [%]	normalised viability (CAL-51 [6]) [%]	normalised viability (Hs578T [7]) [%]	normalised viability (BT-474 [8]) [%]	normalised viability (BT-549 [9]) [%]	normalised viability (DU-4475 [10]) [%]	normalised viability (CAL-85-1 [11]) [%]	normalised viability (CAL-120 [12]) [%]	normalised viability (HCC1599 [13]) [%]	normalised viability (MDA-MB-468 [14]) [%]	normalised viability (MDA-MB-231 [15]) [%]	normalised viability (MDA-MB-436 [16]) [%]	normalised viability (SK-BR-3 [17]) [%]	normalised viability (MDA-MB-453 [18]) [%]	normalised response (MCF-10A) [%]	normalised response (HCC1143 [19]) [%]	normalised response (CAL-148 [20]) [%]	normalised response (HCC1937 [21]) [%]	normalised response (HDQ-P1 [22]) [%]	normalised response (MFM-223 [23]) [%]	normalised response (CAL-51 [24]) [%]	normalised response (Hs578T [25]) [%]	normalised response (BT-474 [26]) [%]	normalised response (BT-549 [27]) [%]	normalised response (DU-4475 [28]) [%]	normalised response (CAL-85-1 [29]) [%]	normalised response (CAL-120 [30]) [%]	normalised response (HCC1599 [31]) [%]	normalised response (MDA-MB-468 [32]) [%]	normalised response (MDA-MB-231 [33]) [%]	normalised response (MDA-MB-436 [34]) [%]	normalised response (SK-BR-3 [35]) [%]	normalised response (MDA-MB-453 [36]) [%]
Cc1ccc(-n2nc(C(C)(C)C)cc2NC(=O)Nc2ccc(OCCN3CCOCC3)c3ccccc23)cc1 [Doramapimod] (1 nM)	97.3	97.8	87	64.3	98.8	112	101	112	99.7	105	100	89.9	99.3	105	102	92.2	108	104	78.8	98.3	88.6	97.4	93	92.4	83.7	95.5	95.5	107	97.6	91.3	93.3	81.5	95	97.9	93.8	79.2	95
CCC1=C[C@@H]2CN(C1)Cc1c([nH]c3ccccc13)[C@@](C(=O)OC)(c1cc3c(cc1OC)N(C)[C@H]1[C@@](O)(C(=O)OC)[C@H](OC(C)=O)[C@]4(CC)C=CCN5CC[C@]31[C@@H]54)C2 [Vinorelbine] (1 nM)	96.5	106	90.8	109	95.6	98.1	113	104	109	102	98.1	94.2	90.2	99.3	93.3	101	95.2	86.9	108	101	108	95	98.1	96.5	102	97.2	97.4	106	98.9	101	106	107	101	107	96.6	95.2	102
Cn1c(Nc2ccc(C(F)(F)F)cc2)nc2cc(Oc3ccnc(-c4ncc(C(F)(F)F)[nH]4)c3)ccc21 [RAF265] (0.1 nM)	104	95.6	99	80.2	96	94.2	111	102	117	105	87.7	86.2	119	104	117	104	89.5	103	107	106	110	102	103	108	73.6	106	107	104	107	102	99	112	102	103	104	110	118
Cc1ccc(C(=O)N(CCCN)[C@@H](c2oc3cc(Cl)ccc3c(=O)c2Cc2ccccc2)C(C)C)cc1 (0.1 nM)	101	111	93	126	105	103	135	68.8	100	95.9	86.1	90.3	108	97.3	90.4	111	105	101	90.2	96.8	101	101	100	93.2	98.9	102	97.8	99.1	96	96	100	101	89.2	98.7	106	89	100
